According to ChEMBL document CHEMBL1147193, “New 5-substituted thiazolo[3,2-b][1,2,4]triazol-6-ones: synthesis and anticancer evaluation” (2007):

Experiments:
Type in all cases: functional
OVCAR-3 = test: Growth inhibition of human OVCAR-3 cells after 48 hrs by SRB protein assay; settings: OVCAR-3, 48 h; for TGI: read-out: Log TGI (converted)
MCF7 [1] = test: Growth inhibition of human MCF7 cells after 48 hrs by SRB protein assay; settings: MCF7, 48 h; for TGI: read-out: Log TGI (converted)
HOP-92 = test: Growth inhibition of human HOP92 cells after 48 hrs by SRB protein assay; settings: HOP-92, 48 h
ACHN = test: Growth inhibition of human ACHN cells after 48 hrs by SRB protein assay; settings: for TGI: read-out: Log TGI (converted)
SN12C = test: Growth inhibition of human SN12C cells after 48 hrs by SRB protein assay; settings: for TGI: read-out: Log TGI (converted)
UACC-257 = test: Growth inhibition of human UACC257 cells after 48 hrs by SRB protein assay; settings: UACC-257, 48 h; for TGI: read-out: Log TGI (converted)
NCI-H322M = test: Growth inhibition of human NCI-H322M cells after 48 hrs by SRB protein assay; settings: for TGI: read-out: Log TGI (converted)
SF-295 = test: Growth inhibition of human SF295 cells after 48 hrs by SRB protein assay; settings: SF-295, 48 h; for TGI: read-out: Log TGI (converted)
LOX IMVI = test: Growth inhibition of human LOX IMVI cells after 48 hrs by SRB protein assay; settings: for TGI: read-out: Log TGI (converted)
MDA-MB-435 = test: Growth inhibition of human MDA-MB-435 cells after 48 hrs by SRB protein assay; settings: MDA-MB-435, 48 h; for TGI: read-out: Log TGI (converted)
SF-268 [2] = test: Anticancer activity against human SF268 cells assessed as growth of cells at 100 uM relative to untreated cells
CAKI-1 = test: Growth inhibition of human CAKI1 cells after 48 hrs by SRB protein assay; settings: CAKI-1, 48 h; for TGI: read-out: Log TGI (converted)
UACC-62 = test: Growth inhibition of human UACC62 cells after 48 hrs by SRB protein assay; settings: UACC-62, 48 h; for TGI: read-out: Log TGI (converted)
Hs-578T = test: Growth inhibition of human HS578T cells after 48 hrs by SRB protein assay; settings: for TGI: read-out: Log TGI (converted)
CCRF-CEM = test: Growth inhibition of human CCRF-CEM cells after 48 hrs by SRB protein assay; settings: for TGI: read-out: Log TGI (converted)
NCI-H460 [3] = test: Anticancer activity against human NCI-H460 cells assessed as growth of cells at 100 uM relative to untreated cells
M14 = test: Growth inhibition of human M14 cells after 48 hrs by SRB protein assay; settings: M14, 48 h; for TGI: read-out: Log TGI (converted)
COLO 205 = test: Growth inhibition of human COLO205 cells after 48 hrs by SRB protein assay; settings: COLO 205, 48 h; for TGI: read-out: Log TGI (converted)
RPMI-8226 = test: Growth inhibition of human RPMI8226 cells after 48 hrs by SRB protein assay; settings: RPMI-8226, 48 h; for TGI: read-out: Log TGI (converted)
SF-268 [4] = test: Growth inhibition of human SF268 cells after 48 hrs by SRB protein assay; settings: SF-268, 48 h; for TGI: read-out: Log TGI (converted)
OVCAR-5 = test: Growth inhibition of human OVCAR5 cells after 48 hrs by SRB protein assay; settings: OVCAR-5, 48 h; for TGI: read-out: Log TGI (converted)
MCF7 [5] = test: Anticancer activity against human MCF7 cells assessed as growth of cells at 100 uM relative to untreated cells
HCT-15 = test: Growth inhibition of human HCT15 cells after 48 hrs by SRB protein assay; settings: HCT-15, 48 h; for TGI: read-out: Log TGI (converted)
HCC 2998 = test: Growth inhibition of human HCC2998 cells after 48 hrs by SRB protein assay; settings: HCC 2998, 48 h; for TGI: read-out: Log TGI (converted)
KM12 = test: Growth inhibition of human KM12 cells after 48 hrs by SRB protein assay; settings: KM12, 48 h; for TGI: read-out: Log TGI (converted)
NCI-H460 [6] = test: Growth inhibition of human NCI-H460 cells after 48 hrs by SRB protein assay; settings: NCI-H460, 48 h; for TGI: read-out: Log TGI (converted)
SW-620 = test: Growth inhibition of human SW620 cells after 48 hrs by SRB protein assay; settings: SW-620, 48 h; for TGI: read-out: Log TGI (converted)
OVCAR-8 = test: Growth inhibition of human OVCAR8 cells after 48 hrs by SRB protein assay; settings: OVCAR-8, 48 h; for TGI: read-out: Log TGI (converted)
U-251 = test: Growth inhibition of human U251 cells after 48 hrs by SRB protein assay; settings: U-251, 48 h; for TGI: read-out: Log TGI (converted)
A549 = test: Growth inhibition of human A549/ATCC cells after 48 hrs by SRB protein assay; settings: A549, 48 h; for TGI: read-out: Log TGI (converted)
PC-3 = test: Growth inhibition of human PC3 cells after 48 hrs by SRB protein assay; settings: PC-3, 48 h; for TGI: read-out: Log TGI (converted)
TK-10 = test: Growth inhibition of human TK10 cells after 48 hrs by SRB protein assay; settings: TK-10, 48 h; for TGI: read-out: Log TGI (converted)
SK-MEL-28 = test: Growth inhibition of human SK-MEL-28 cells after 48 hrs by SRB protein assay; settings: SK-MEL-28, 48 h; for TGI: read-out: Log TGI (converted)
SK-MEL-5 = test: Growth inhibition of human SK-MEL-5 cells after 48 hrs by SRB protein assay; settings: SK-MEL-5, 48 h; for TGI: read-out: Log TGI (converted)
OVCAR-4 = test: Growth inhibition of human OVCAR4 cells after 48 hrs by SRB protein assay; settings: OVCAR-4, 48 h
[7] = Growth inhibition of human MALME 3M cells after 48 hrs by SRB protein assay
[8] = Growth inhibition of human MDA-MB-231/ATCC cells after 48 hrs by SRB protein assay; settings: MDA-MB-231, 48 h
IGROV-1 = test: Growth inhibition of human IGROV1 cells after 48 hrs by SRB protein assay; settings: IGROV-1, 48 h
SK-OV-3 = test: Growth inhibition of human SK-OV-3 cells after 48 hrs by SRB protein assay; settings: SK-OV-3, 48 h
UO-31 = test: Growth inhibition of human UO31 cells after 48 hrs by SRB protein assay; settings: UO-31, 48 h

SMILES: CCOC(=O)c1ccc(NC(=O)CC2Sc3ncnn3C2=O)cc1 (stereo not given)
- GI50 (OVCAR-3): 45.7 µM
- TGI (OVCAR-3): > 100 µM
- GI50 (MCF7 [1]): 38.9 µM
- TGI (MCF7 [1]): > 100 µM
- GI50 (HOP-92): 19.5 µM
- TGI (HOP-92; read-out: Log TGI (converted)): 47.9 µM
- GI50 (ACHN): 17.4 µM
- TGI (ACHN): 31.6 µM
- GI50 (SN12C): 26.3 µM
- TGI (SN12C): 87.1 µM
- GI50 (UACC-257): 87.1 µM
- TGI (UACC-257): > 100 µM
- GI50 (NCI-H322M): > 100 µM
- TGI (NCI-H322M): > 100 µM
- GI50 (SF-295): > 100 µM
- TGI (SF-295): > 100 µM
- GI50 (LOX IMVI): 18.2 µM
- TGI (LOX IMVI): 35.5 µM
- GI50 (MDA-MB-435): > 100 µM
- TGI (MDA-MB-435): > 100 µM
- Activity (SF-268 [2]): 8%
- GI50 (CAKI-1): 63.1 µM
- TGI (CAKI-1): > 100 µM
- GI50 (UACC-62): 40.7 µM
- TGI (UACC-62): > 100 µM
- GI50 (Hs-578T): > 100 µM
- TGI (Hs-578T): > 100 µM
- GI50 (CCRF-CEM): 24.5 µM
- TGI (CCRF-CEM): 77.6 µM
- Activity (NCI-H460 [3]): 0%
- GI50 (M14): 18.6 µM
- TGI (M14): 34.7 µM
- GI50 (COLO 205): 21.4 µM
- TGI (COLO 205): 40.7 µM
- GI50 (RPMI-8226): 4.57 µM
- TGI (RPMI-8226): 9.77 µM
- GI50 (SF-268 [4]): > 100 µM
- TGI (SF-268 [4]): > 100 µM
- GI50 (OVCAR-5): 17 µM
- TGI (OVCAR-5): 31.6 µM
- Activity (MCF7 [5]): 0%
- GI50 (HCT-15): 20.9 µM
- TGI (HCT-15): 52.5 µM
- GI50 (HCC 2998): 18.2 µM
- TGI (HCC 2998): 32.4 µM
- GI50 (KM12): > 100 µM
- TGI (KM12): > 100 µM
- GI50 (NCI-H460 [6]): > 100 µM
- TGI (NCI-H460 [6]): > 100 µM
- GI50 (SW-620): 38.9 µM
- TGI (SW-620): > 100 µM
- GI50 (OVCAR-8): > 100 µM
- TGI (OVCAR-8): > 100 µM
- GI50 (U-251): > 100 µM
- TGI (U-251): > 100 µM
- GI50 (A549): > 100 µM
- TGI (A549): > 100 µM
- GI50 (PC-3): 18.2 µM
- TGI (PC-3): 40.7 µM
- GI50 (TK-10): 22.9 µM
- TGI (TK-10): 55 µM
- GI50 (SK-MEL-28): 91.2 µM
- TGI (SK-MEL-28): > 100 µM
- GI50 (SK-MEL-5): > 100 µM
- TGI (SK-MEL-5): > 100 µM

SMILES: O=c1/c(=C/c2ccc(Cl)cc2)sc2ncnn12
- GI50 (OVCAR-3): 13.2 µM
- TGI (OVCAR-3): 30.2 µM
- GI50 (MCF7 [1]): 6.31 µM
- TGI (MCF7 [1]): 30.9 µM
- GI50 (ACHN): 14.5 µM
- TGI (ACHN): 38.9 µM
- GI50 (SN12C): 15.5 µM
- TGI (SN12C): 49 µM
- GI50 (UACC-257): 13.5 µM
- TGI (UACC-257): 30.2 µM
- GI50 (NCI-H322M): 13.2 µM
- TGI (NCI-H322M): 26.3 µM
- GI50 (SF-295): 17.8 µM
- TGI (SF-295): 35.5 µM
- GI50 (LOX IMVI): 10.7 µM
- TGI (LOX IMVI): 25.1 µM
- GI50 (MDA-MB-435): 12.6 µM
- TGI (MDA-MB-435): 26.9 µM
- Activity (SF-268 [2]): 11%
- GI50 (CAKI-1): 19.5 µM
- TGI (CAKI-1): 38.9 µM
- GI50 (UACC-62): 14.5 µM
- TGI (UACC-62): 29.5 µM
- GI50 (Hs-578T): 14.1 µM
- TGI (Hs-578T): 37.2 µM
- GI50 (OVCAR-4): 17.4 µM
- TGI (OVCAR-4; read-out: Log TGI (converted)): 63.1 µM
- GI50 (CCRF-CEM): 0.355 µM
- TGI (CCRF-CEM): 20 µM
- GI50 [7]: 11.2 µM
- TGI ([7]; read-out: Log TGI (converted)): 26.9 µM
- Activity (NCI-H460 [3]): 3%
- GI50 (M14): 15.1 µM
- TGI (M14): 35.5 µM
- GI50 (COLO 205): 17 µM
- TGI (COLO 205): 38.9 µM
- GI50 (RPMI-8226): 2.95 µM
- TGI (RPMI-8226): 17.4 µM
- GI50 [8]: 19.1 µM
- TGI ([8]; read-out: Log TGI (converted)): 43.7 µM
- GI50 (SF-268 [4]): 16.2 µM
- TGI (SF-268 [4]): 58.9 µM
- GI50 (OVCAR-5): 20 µM
- TGI (OVCAR-5): 34.7 µM
- GI50 (IGROV-1): 10 µM
- TGI (IGROV-1; read-out: Log TGI (converted)): 24.5 µM
- Activity (MCF7 [5]): 10%
- GI50 (HCT-15): 12 µM
- TGI (HCT-15): 34.7 µM
- GI50 (HCC 2998): 18.2 µM
- TGI (HCC 2998): 32.4 µM
- GI50 (SK-OV-3): 29.5 µM
- TGI (SK-OV-3; read-out: Log TGI (converted)): 55 µM
- GI50 (KM12): 10.5 µM
- TGI (KM12): 25.7 µM
- GI50 (NCI-H460 [6]): 17.4 µM
- TGI (NCI-H460 [6]): 44.7 µM
- GI50 (SW-620): 14.8 µM
- TGI (SW-620): 30.9 µM
- GI50 (OVCAR-8): 12.6 µM
- TGI (OVCAR-8): 36.3 µM
- GI50 (U-251): 10.5 µM
- TGI (U-251): 23.4 µM
- GI50 (A549): 21.4 µM
- TGI (A549): 83.2 µM
- GI50 (PC-3): 11.7 µM
- TGI (PC-3): 28.8 µM
- GI50 (UO-31): 12.3 µM
- TGI (UO-31; read-out: Log TGI (converted)): 33.1 µM
- GI50 (TK-10): 16.6 µM
- TGI (TK-10): 31.6 µM
- GI50 (SK-MEL-28): 16.6 µM
- TGI (SK-MEL-28): 35.5 µM
- GI50 (SK-MEL-5): 10.7 µM
- TGI (SK-MEL-5): 23.4 µM
